Here are results for 2 molecules from US10376484B2, “Combination of bezafibrate and of resveratrol or resveratrol derivatives for the treatment and prevention of diseases involving a mitochondrial energy dysfunction” (priority 2013, dated 2019).

Holding throughout (assay type): cell-based, human
The test system of test [1] is fibroblasts of patients suffering from moderate VLCAD deficiency. The test can be described thus: Tritiated palmitate β-oxidation (FAO) in fibroblasts after 48 h treatment, VLCAD deficiency. The following applies: for % increase in fatty acid oxidation (FAO): 48 h, vs carrier. As to the method:
(§1) Cellular palmitate β-oxidation activity can be measured with any suitable technology known to persons skilled in the art. That can in particular be achieved by using tritiated palmitate complexed with BSA (bovine albumin serum), which is added to the cells to be tested. After incubation, the addition of trichloroacetic acid (TCA) in a supernatant sample makes it possible to precipitate unmetabolized complexes (BSA/tritiated palmitate), which are excluded by centrifugation. The measurement of tritium present in the supernatant after centrifugation and exclusion of unmetabolized complexes (BSA/tritiated palmitate) makes it possible to determine the amount of palmitate metabolized by the cells. A precise example of a protocol for implementing this process for measuring palmitate β-oxidation activity is described in Example 1. The fibroblasts are grown at 37° C. in complete Ham's F10 medium, i.e., supplemented with 12% fetal calf serum, 100 U/ml penicillin, and 0.1 mg/ml streptomycin, at a concentration of 70,000 cells per ml and per well in 24-well culture dishes. Twenty-four hours after seeding, stock solutions of RSV (0.2 M) and of BZ (0.4 M) are prepared in DMSO in order to prepare the various cell treatment media. For the treatment, the culture medium is discarded and replaced with 1 ml of complete Ham's F10 medium supplemented with one of the molecules of interest at one of the following concentrations, 75 μM RSV, or 400 μM BZ, or 20 μM RSV, or 30 μM RSV, […], […], or the culture medium is discarded and replaced with 1 ml of complete Ham's F10 medium supplemented with a combination of the two molecules of interest at the following concentrations: ([…]), or ([…]). Additional wells receive 1 ml of complete medium supplemented with the diluent of the molecules of interest only (<0.05% DMSO). Each of these treatment conditions is applied in triplicate (3 wells) for each patient, in each experiment. The 24-well dishes are then incubated at 37° C. for 48 hours. Thus, the cells of each individual studied are treated in all of the conditions listed, in parallel, for 48 hours, before the measurement of palmitate β-oxidation. The fatty acid used is palmitate labeled with tritium at positions 9 and 10 (^3H-Pal). A stock solution is prepared beforehand by mixing 100 μl of ^3H-Pal, 130 μl of 50 mM “cold” palmitate and 13 ml of 25 mg/ml BSA solution. A ^3H-Pal/BSA (bovine serum albumin) complex ensuring good palmitate solubilization is thus obtained (final palmitate concentration: 500 μM). The test of ^3H-palmitate oxidation is carried out on fibroblasts seeded in a 24-well plate. The culture medium is first discarded and the wells are rinsed three times with PBS. A 125 μM ^3H-Pal working solution is prepared, from the 500 μM stock solution, in PBS with Ca/Mg, supplemented with 1 mM carnitine. 200 μl of t[…]-Pal solution is introduced into each well and the plates are incubated at 37° C. for 2 hours. During this time, three counting vials are prepared for the measurement of specific radioactivity (RDA, in CPM/nmol of fatty acids) of the reaction medium. These vials contain 5 ml of scintillation fluid, 1.5 ml of distilled water, and 20 μl of ^3H-Pal/BSA solution. The scintillation fluid converts the radioactive energy of ^3H into light energy, which thus makes it possible to measure radioactivity, expressed in counts per minute (CPM), using a liquid scintillation counter. At the end of 2 hours of incubation, 200 μl is taken from each well and mixed with 200 μl of 10% trichloroacetic acid (TCA). This strong acid ensures the precipitation of unmetabolized BSA/AG complex. The tubes are then centrifuged at 3300 rpm for 10 minutes at 4° C. After centrifugation, 350 μl of supernatant is taken and mixed with […] of 6 M NaOH in order to neutralize the pH. The total volume, or 450 μl, is transferred to an ion-exchange resin column which retains the tritiated water. These columns are then transferred to scintillation vials. […]

Test [2] has as its system fibroblasts of patients suffering from moderate CPT2 deficiency. The test can be described thus: Tritiated palmitate β-oxidation (FAO) in fibroblasts after 48 h treatment, CPT2 deficiency. The following applies: for % increase in fatty acid oxidation (FAO): 48 h, vs carrier. The protocol:
as §1

For test [3], the system named is fibroblasts of patients suffering from moderate β-oxidation deficiency. Briefly: Palmitate β-oxidation, correction of deficiency, pooled statements over deficiency types. Conditions: for reduction in dose by a factor, combination vs compound alone: 30 μM RSV + 35 μM BZ vs 75 μM RSV / 400 μM BZ; for reduction in dose by a factor, combination vs compound alone / concentration at which the compound alone corrects the deficiency: VLCAD and CPT2 deficiency; for concentration at which the compound alone corrects the deficiency: compound used alone; for factor by which combining the two molecules decreases the dose needed to correct the deficiency: conclusion over three types of moderate β-oxidation enzyme deficiencies. As to the method: The fibroblasts are grown at 37° C. in complete Ham's F10 medium, i.e., supplemented with 12% fetal calf serum, 100 U/ml penicillin, and 0.1 mg/ml streptomycin, at a concentration of 70,000 cells per ml and per well in 24-well culture dishes. Twenty-four hours after seeding, stock solutions of RSV (0.2 M) and of BZ (0.4 M) are prepared in DMSO in order to prepare the various cell treatment media. For the treatment, the culture medium is discarded and replaced with 1 ml of complete Ham's F10 medium supplemented with one of the molecules of interest at one of the following concentrations, 75 μM RSV, or 400 μM BZ, or 20 μM RSV, or 30 μM RSV, or 25 μM RSV, or 35 μM RSV, or the culture medium is discarded and replaced with 1 ml of complete Ham's F10 medium supplemented with a combination of the two molecules of interest at the following concentrations: (20 μM RSV+[…]), or (30 μM RSV+[…]). Additional wells receive 1 ml of complete medium supplemented with the diluent of the molecules of interest only (<0.05% DMSO). Each of these treatment conditions is applied in triplicate (3 wells) for each patient, in each experiment. The 24-well dishes are then incubated at 37° C. for 48 hours. Thus, the cells of each individual studied are treated in all of the conditions listed, in parallel, for 48 hours, before the measurement of palmitate β-oxidation. The fatty acid used is palmitate labeled with tritium at positions 9 and 10 (^3H-Pal). A stock solution is prepared beforehand by mixing 100 μl of ^3H-Pal, 130 μl of 50 mM “cold” palmitate and 13 ml of 25 mg/ml BSA solution. A ^3H-Pal/BSA (bovine serum albumin) complex ensuring good palmitate solubilization is thus obtained (final palmitate concentration: 500 μM). The test of ^3H-palmitate oxidation is carried out on fibroblasts seeded in a 24-well plate. The culture medium is first discarded and the wells are rinsed three times with PBS. A 125 μM ^3H-Pal working solution is prepared, from the 500 μM stock solution, in PBS with Ca/Mg, supplemented with 1 mM carnitine. 200 μl of t[…]-Pal solution is introduced into each well and the plates are incubated at 37° C. for 2 hours. During this time, three counting vials are prepared for the measurement of specific radioactivity (RDA, in CPM/nmol of fatty acids) of the reaction medium. These vials contain 5 ml of scintillation fluid, 1.5 ml of distilled water, and 20 μl of ^3H-Pal/BSA solution. The scintillation fluid converts the radioactive energy of ^3H into light energy, which thus makes it possible to measure radioactivity, expressed in counts per minute (CPM), using a liquid scintillation counter. At the end of 2 hours of incubation, 200 μl is taken from each well and mixed with 200 μl of 10% trichloroacetic acid (TCA). This strong acid ensures the precipitation of unmetabolized BSA/AG complex. The tubes are then centrifuged at 3300 rpm for 10 minutes at 4° C. After centrifugation, 350 μl of supernatant is taken and mixed with […] of 6 M NaOH in order to neutralize the pH. The total volume, or 450 μl, is transferred to an ion-exchange resin column which retains the tritiated water. These columns are then transferred to scintillation vials. The tritiated water is then eluted with 1.7 ml of distilled water. 5 ml of scintillation fluid is added to the tritiated water and the vials are placed in the liquid scintillation counter.

In the case of `Oc1ccc(/C=C/c2cc(O)cc(O)c2)cc1` [RSV, 5-[(E)-2-(4-hydroxyphenyl)-ethenyl]benzene-1,3-diol], the “% increase in fatty acid oxidation (FAO)” value in test [1] (patient E3536, 75 μM RSV alone) is 145%; in test [1] (patient beta, 75 μM RSV alone), 67%; in test [2] (patient DIA Ke, 75 μM RSV alone), 44%; in test [2] (patient alpha, 75 μM RSV alone) it was 100%. Besides, the “% increase in fatty acid oxidation (FAO), Measured” value (from here on “% increase … Measured”) in test [1] (patient E3536, Condition 1, 20 μM RSV alone) was found to be 81%; in test [1] (patient E3536, Condition 2, 30 μM RSV alone), 106%; in test [1] (patient beta, Condition 1, 20 μM RSV alone), 22%; in test [1] (patient beta, Condition 2, 30 μM RSV alone), 43%; in test [2] (patient DIA Ke, Condition 1, 20 μM RSV alone), 49%; in test [2] (patient DIA Ke, Condition 2, 30 μM RSV alone) it was 66%. Moreover, the “% increase … Measured” value turned out to be 39% in test [2] (patient alpha, Condition 1, 20 μM RSV alone) and 48% in test [2] (patient alpha, Condition 2, 30 μM RSV alone). In addition, the “reduction in dose by a factor, combination vs compound alone” value in test [3] was 2.5. In test [3], the “concentration at which the compound alone corrects the deficiency” value is 75 µM. For the same molecule, the “factor by which combining the two molecules decreases the dose needed to correct the deficiency” value in test [3] came out at 2.
For the molecule `CC(C)(Oc1ccc(CCNC(=O)c2ccc(Cl)cc2)cc1)C(=O)O` [BZ, 2-(4-(2-((4-chlorobenzoyl)amino)ethyl)phenoxy)-2-methylpropanoic acid], the “% increase in fatty acid oxidation (FAO)” value is recorded as 128% in test [1] (patient E3536, 400 μM BZ alone); 83% in test [1] (patient beta, 400 μM BZ alone); 62% in test [2] (patient DIA Ke, 400 μM BZ alone); 88% in test [2] (patient alpha, 400 μM BZ alone). In addition, the “% increase … Measured” value was found to be 7% in test [1] (patient E3536, Condition 1, 25 μM BZ alone); 20% in test [1] (patient E3536, Condition 2, 35 μM BZ alone); 1% in test [1] (patient beta, Condition 1, 25 μM BZ alone); 8% in test [1] (patient beta, Condition 2, 35 μM BZ alone); 0% in test [2] (patient DIA Ke, Condition 1, 25 μM BZ alone); 6% in test [2] (patient DIA Ke, Condition 2, 35 μM BZ alone). In addition, the “% increase … Measured” value in test [2] (patient alpha, Condition 1, 25 μM BZ alone) is reported as 0%; in test [2] (patient alpha, Condition 2, 35 μM BZ alone) it was 6%. Also, in test [3], the “reduction in dose by a factor, combination vs compound alone” value is 11.4. Moreover, in test [3], the “concentration at which the compound alone corrects the deficiency” value was found to be 400 µM. Further, the “factor by which combining the two molecules decreases the dose needed to correct the deficiency” value in test [3] is 10.
